Counter-ions that a name gives are not always drawn.
target: IDO1 (Homo sapiens, UniProt P14902); test: IDO1 Human Whole Blood Assay; format: cell-based; settings: LPS and IFNγ 100 ng/mL, 18 h, kynurenine by LC/MS/MS, read-out: Human Whole Blood Potency, IC50
Experimental: IDO1 Human Whole Blood Assay
Compounds to be tested were serially diluted in ten 3-fold steps in DMSO starting from 10 mM. […] LPS and IFNγ was prepared in RPMI to a 10× of final conc. (1000 ng/mL), final concentration is 100 ng/mL.
240 μL of blood was transferred to each of the wells of a v-bottom 96 well plate. 30 μL of compound was transferred from intermediate dilution plate, and incubated for 15 min. 30 μL from stimulants was then transferred to blood and mixed thoroughly. Plate was covered with breathable membrane and incubated at 37° C. for overnight (18 h).
On day 2 isotope labeled standard of kynurenine and tryptophan was made in water at 10× concentration and 30 μL was added to the blood at 3 μM final concentration. The assay plates were centrifuged at 300×G for 10 min with no brake to separate plasma from red blood cells. 60 μL of plasma samples was removed without disturbing red blood cells. Plasma was diluted with RPMI in 1:1 ratio and proteins were precipitated out with two volume of
Acetonitrile. The plates were centrifuged at 4000×G for 60 min. 20 μL of supernatant was carefully transferred to a 384 well plate contain 40 μL of 0.1% formic acid in water and analyzed by LC/MS/MS.
LC/MS/MS analyses were performed using Thermo Fisher's LX4-TSQ Quantum Ultra system. This system consists of four Agilent binary high-performance liquid chromatography (HPLC) pumps and a TSQ Quantum Ultra triple quadrupole MS/MS instrument. For each sample, 5 μL were injected onto an Atlantis T3 column (2.1 mm×150 mm, 3 μm particle size) from Waters. The mobile phase gradient pumped at 0.8 mL/min was used to elute the analytes from the column at 25° C. […] Mobile phase A consisted of 0.1% formic acid in water. Mobile phase B consisted of 0.1% of formic acid in acetonitrile. Data was acquired in positive mode using a HESI interface. The operational parameters for the TSQ Quantum Ultra instrument were a spray voltage of 4000 V, capillary temperature of 380° C., vaporizer temperature 400° C., shealth gas 60 arbitrary units, Aux gas 20 arbitrary units, tube lens 85 and collision gas 1.2 mTorr. SRM chromatograms of kynurenine (Q1: 209.2>Q3:94.0) and internal standard (Q1: 215.3>Q3:98.2) were collected for 90 sec. The peak area was integrated by Xcalibur Quan software. The ratios between the kynurenine generated in the reaction and 2D6-Kynurenine spiked-in internal standard were used to generate percentage inhibition and IC50 values. Compounds were titrated and IC50's were calculated by 4 parameter sigmoidal curve fitting formula.
The biological activity data of selective compounds using the IDO1 human whole blood assay described above are summarized in the table below.

Sequence of IDO1 (P14902 whole entry): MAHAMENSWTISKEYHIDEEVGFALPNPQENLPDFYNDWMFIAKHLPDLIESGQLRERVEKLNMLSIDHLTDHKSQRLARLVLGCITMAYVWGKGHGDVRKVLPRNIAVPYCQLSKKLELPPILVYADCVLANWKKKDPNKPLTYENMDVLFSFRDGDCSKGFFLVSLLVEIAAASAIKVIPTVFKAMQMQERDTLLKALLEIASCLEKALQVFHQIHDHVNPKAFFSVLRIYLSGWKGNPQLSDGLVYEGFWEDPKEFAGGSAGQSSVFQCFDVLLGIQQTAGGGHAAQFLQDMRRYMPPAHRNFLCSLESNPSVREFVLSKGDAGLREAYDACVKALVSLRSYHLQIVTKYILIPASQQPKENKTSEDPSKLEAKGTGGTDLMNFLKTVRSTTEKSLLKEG

Going from `CC1CC1(NC(=O)c1ccc(F)cc1)c1ccc(-c2cnc(C(F)(F)F)cc2C(C)(C)O)nc1` (single isomer, unassigned) [Example 56, 4-fluoro-N-(1-(4′-(2-hydroxypropan-2-yl)-6′-(trifluoromethyl)-[2,3′-bipyridin]-5-yl)-2-methylcyclopropyl)benzamide] to `CC(C)(O)c1cc(C(F)(F)F)ncc1-c1ccc(C2(NC(=O)c3ccc(F)cc3)CCC2)cc1` [Example 52, 4-fluoro-N-(1-(4-(4-(2-hydroxypropan-2-yl)-6-(trifluoromethyl)pyridin-3-yl)phenyl)cyclobutyl)benzamide], the IC50 falls from 361 nM to 152 nM (2.4-fold).

Going from `CC1CC1(NC(=O)c1ccc(F)cc1)c1ccc(-c2cnc(C(F)(F)F)cc2C(C)(C)O)nc1` (single isomer, unassigned) [Example 58] to `C[C@H](O)c1cc(C(F)(F)F)ncc1-c1ccc(C2(NC(=O)c3ccc(F)cc3)CC2)cc1` [Example 50, (S)-4-fluoro-N-(1-(4-(4-(1-hydroxyethyl)-6-(trifluoromethyl)pyridin-3-yl)phenyl)cyclopropyl)benzamide], the IC50 falls from 284 nM to 186 nM (1.5-fold).

`CC1CC1(NC(=O)c1ccc(F)cc1)c1ccc(-c2cnc(C(F)(F)F)cc2C(C)(C)O)nc1` (single isomer, unassigned) [Example 59] and `C[C@@H](O)c1cc(C(F)(F)F)ncc1-c1ccc(C2(NC(=O)c3ccc(F)cc3)CC2)cc1` [Example 51, (R)-4-fluoro-N-(1-(4-(4-(1-hydroxyethyl)-6-(trifluoromethyl)pyridin-3-yl)phenyl)cyclopropyl)benzamide, 2,2,2-trifluoroacetate salt] are within 1.5-fold of each other in IC50: 171 nM for the first, 233 nM for the second.

Compared with `CC1CC1(NC(=O)c1ccc(F)cc1)c1ccc(-c2cnc(C(F)(F)F)cc2C(C)(C)O)nc1` (single isomer, unassigned) [Example 60], `O=C(NC1(c2ccc(-c3cnc(C(F)(F)F)cc3CO)cc2)CCC1)c1ccc(F)cc1` [Example 53] is 4.8-fold higher in IC50: 210 nM for the first, 1000 nM for the second. The first is the more potent here.

Going from `Cc1cc(C2CC2)ncc1-c1ccc(C2(NC(=O)c3ccc(C#N)cc3)CCC2)cc1F` [Example 7, 4-Cyano-N-(1-(4-(6-cyclopropyl-4-methylpyridin-3-yl)-3-fluorophenyl)cyclobutyl)benzamide] to `Cc1cc(C2CC2)ncc1-c1ccc(C2(NC(=O)c3ccc(C#N)cc3)CCC2)cc1` [Example 12, 4-cyano-N-(1-(4-(6-cyclopropyl-4-methylpyridin-3-yl)phenyl)cyclobutyl)benzamide], the IC50 falls from 398 nM to 246 nM (1.6-fold). The second is the more potent here.

First: N#Cc1ccc(C(=O)NC2(c3ccc(-c4ccc(C5CC5)nc4CO)cc3)CCC2)cc1 [Example 25, 4-cyano-N-(1-(4-(6-cyclopropyl-2-(hydroxymethyl)pyridin-3-yl)phenyl)cyclobutyl)benzamide]
Second: N#Cc1ccc(C(=O)NC2(c3ccc(-c4cnc(C(F)(F)F)cc4CO)cc3)CCC2)cc1 [Example 35, 4-cyano-N-(1-(4-(4-(hydroxymethyl)-6-(trifluoromethyl)pyridin-3-yl)phenyl)cyclobutyl)benzamide]
The IC50 of the first is 1.8-fold lower: 587 nM for the first, 1070 nM for the second.

`COc1cc(C)c(-c2ccc(C3(NC(=O)c4ccc(C#N)cc4)CCC3)cc2)c(C)n1` [Example 36, 4-cyano-N-(1-(4-(6-methoxy-2,4-dimethylpyridin-3-yl)phenyl)cyclobutyl)benzamide] and `Cc1cc(C2CC2)ncc1-c1ccc(C2(NC(=O)c3ccc(C#N)cc3)CCC2)nc1` [Example 42, 4-Cyano-N-(1-(6′-cyclopropyl-4′-methyl-[3,3′-bipyridin]-6-yl)cyclobutyl)benzamide] are within 1.5-fold of each other in IC50: 308 nM for the first, 392 nM for the second.

`O=C(NC1(c2ccc(-c3cnc(C(F)(F)F)cc3CO)cc2)CC1)c1ccc(Cl)cc1` [Example 46, 4-chloro-N-(1-(4-(4-(hydroxymethyl)-6-(trifluoromethyl)pyridin-3-yl)phenyl)cyclopropyl)benzamide] and `CC(C)Oc1cc(CO)c(-c2ccc(C3(NC(=O)c4ccc(F)cc4)CC3)cc2)cn1` [Example 49, 4-fluoro-N-(1-(4-(4-(hydroxymethyl)-6-isopropoxypyridin-3-yl)phenyl)cyclopropyl)benzamide] are within 1.5-fold of each other in IC50: 703 nM for the first, 579 nM for the second.

First: CC(C)(O)c1cc(OC2CC2)ncc1-c1ccc(C2(NC(=O)c3ccc(F)cc3)CC2)cc1 [Example 47, N-(1-(4-(6-cyclopropoxy-4-(2-hydroxypropan-2-yl)pyridin-3-yl)phenyl)cyclopropyl)-4-fluorobenzamide]
Second: CC(C)(O)c1cc(OC2CC2)ncc1-c1ccc(C2(NC(=O)c3ccc(F)cc3)CCC2)cc1 [Example 54, N-(1-(4-(6-cyclopropoxy-4-(2-hydroxypropan-2-yl)pyridin-3-yl)phenyl)cyclobutyl)-4-fluorobenzamide]
The IC50 of the first is 2.6-fold lower: 127 nM for the first, 336 nM for the second. The first is the more potent here.

With `O=C(NC1(c2ccc(-c3cnc(OC4CC4)cc3CO)cc2)CC1)c1ccc(F)cc1` [Example 48, N-(1-(4-(6-cyclopropoxy-4-(hydroxymethyl)pyridin-3-yl)phenyl)cyclopropyl)-4-fluorobenzamide] the IC50 was 922 nM.

Source: patent US11498904B2, “Substituted biaryl compounds as indoleamine 2,3-dioxygenase (IDO) inhibitors” (MERCK SHARP & DOHME CORP., priority 2017, dated 2022)
